# Assays:
# [1] = test system: human spermatozoa; assay: Superoxide assay, luminol-based Diogenes chemiluminescence, whole spermatozoa; assay type: cell-based; settings: for effect on H2O2-induced superoxide chemiluminescence signal: 100 μM H2O2, GKT136901 0.5 μM; for effect on H2O2-induced superoxide chemiluminescence signal / effect on ionomycin-induced superoxide chemiluminescence signal: SOD 400 U/ml, BAPTA 100 μM, DPI 10 μM; for effect on ionomycin-induced superoxide chemiluminescence signal: 1 μM ionomycin
# From the text: (§1) Human semen samples were obtained from patient donors as a part of their clinical evaluation for fertility and reproductive health status. Portions of the samples not required for clinical analyses were de-identified and made available for the research protocols described. Under these conditions, the Institutional Review Board determined that the study is exempt from requirements for protocol approval and informed consent. Semen was collected by masturbation into sterile plastic containers and allowed to liquefy for at least 30 min before being processed. The samples were centrifuged (500 g, 15 min) to separate the seminal plasma from spermatozoa, and the pellet washed twice in phosphate-buffered normal saline pH 7 with 10 mM glucose (PBS-G). The spermatozoa were then counted in a hemocytometer chamber, resuspended in PBS-G at 10^9/ml, and used for superoxide assays. Sperm samples containing leukocytes detected by microscopic examination were excluded from the study. For selected experiments, motile spermatozoa were collected using the swim-up procedure (Vijayakumar et al. (1986) Arch. Androl. 17, 223-230; Parrish and Foote (1987) J. Androl. 8, 259-266). Briefly, the spermatozoa were sedimented by centrifugation (500 g, 15 min) and the tube was then incubated upright for 60 min at 37° C. Motile spermatozoa that progressed from the pellet into the supernatant (swim-up fraction) were collected by aspiration and counted.
# Superoxide generation was measured using a luminol-based chemiluminescence assay (Diogenes reagent, National Diagnostics, Atlanta, Ga.). […] Spermatozoa were suspended at 10^9/ml in PBS-G. A 100 μl aliquot of the Diogenes reagent was mixed with 2×10^7 spermatozoa and incubated at 37° C. for 2-4 minutes. Superoxide generation was measured at baseline and after stimulation with ionomycin (1 μM), phorbol myristate acetate (PMA, 1 μg/ml), or H2O2 (100 μM and other concentrations as indicated). Chemiluminescence was measured every 30-60 sec for up to 10-15 min using a Clarity™ BioTek luminometer and an integration time of 5 sec.
# Spermatozoa were pre-incubated for 5 min prior to the superoxide assay with 400 U/ml superoxide dismutase (SOD), 10 μM diphenylene iodonium (DPI), or 100 μM 1,2-Bis (2-aminophenoxy) ethane-N,N,N′,N′-tetraacetic acid (BAPTA). […] In some experiments, cells were pre-exposed to the NOX inhibitor 2-(2-chlorophenyl)-4-methyl-5-(pyridin-2-ylmethyl)-1H-pyrazolo[4,3-c]pyridine-3,6(2H,5H)-dione (GKT136901, 0.5 μM and other concentrations as indicated) for 10 min before exposure to either H2O2 or PMA.
# [2] = test system: human spermatozoa; assay: Swim-up procedure, sperm motility; assay type: cell-based; settings: GKT136901 0.5 μM or DPI 10 μM; 100 μM H2O2
# From the text: as §1
# [3] = molecular target: T1, NOX1 (Homo sapiens, UniProt Q9Y5S8); settings: cited from earlier work
# T1 sequence (Q9Y5S8 1-564): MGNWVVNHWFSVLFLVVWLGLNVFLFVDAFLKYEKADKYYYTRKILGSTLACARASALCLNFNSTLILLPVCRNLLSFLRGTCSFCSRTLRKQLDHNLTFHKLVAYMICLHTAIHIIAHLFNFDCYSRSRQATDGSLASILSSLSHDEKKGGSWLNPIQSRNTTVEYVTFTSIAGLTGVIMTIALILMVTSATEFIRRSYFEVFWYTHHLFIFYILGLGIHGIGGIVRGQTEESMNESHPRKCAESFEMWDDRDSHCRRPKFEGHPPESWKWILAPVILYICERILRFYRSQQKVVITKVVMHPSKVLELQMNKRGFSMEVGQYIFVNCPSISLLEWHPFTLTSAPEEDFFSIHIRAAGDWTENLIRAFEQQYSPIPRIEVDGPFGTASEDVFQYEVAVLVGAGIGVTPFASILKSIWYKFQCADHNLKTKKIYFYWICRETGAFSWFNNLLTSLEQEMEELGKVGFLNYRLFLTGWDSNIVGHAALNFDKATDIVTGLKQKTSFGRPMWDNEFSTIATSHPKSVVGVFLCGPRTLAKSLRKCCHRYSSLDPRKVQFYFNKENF
# T1 sequence (P13498 1-195 partner): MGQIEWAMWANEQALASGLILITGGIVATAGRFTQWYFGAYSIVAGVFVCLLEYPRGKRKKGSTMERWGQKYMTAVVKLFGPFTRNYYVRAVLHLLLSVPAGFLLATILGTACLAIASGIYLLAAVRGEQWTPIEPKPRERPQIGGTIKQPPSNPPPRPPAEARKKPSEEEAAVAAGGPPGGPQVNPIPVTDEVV
# [4] = molecular target: T2, NOX2 (Homo sapiens, UniProt P04839); settings: NOX1 and NOX4 versus NOX2; cited from earlier work
# T2 sequence (P04839 2-570 limits assumed): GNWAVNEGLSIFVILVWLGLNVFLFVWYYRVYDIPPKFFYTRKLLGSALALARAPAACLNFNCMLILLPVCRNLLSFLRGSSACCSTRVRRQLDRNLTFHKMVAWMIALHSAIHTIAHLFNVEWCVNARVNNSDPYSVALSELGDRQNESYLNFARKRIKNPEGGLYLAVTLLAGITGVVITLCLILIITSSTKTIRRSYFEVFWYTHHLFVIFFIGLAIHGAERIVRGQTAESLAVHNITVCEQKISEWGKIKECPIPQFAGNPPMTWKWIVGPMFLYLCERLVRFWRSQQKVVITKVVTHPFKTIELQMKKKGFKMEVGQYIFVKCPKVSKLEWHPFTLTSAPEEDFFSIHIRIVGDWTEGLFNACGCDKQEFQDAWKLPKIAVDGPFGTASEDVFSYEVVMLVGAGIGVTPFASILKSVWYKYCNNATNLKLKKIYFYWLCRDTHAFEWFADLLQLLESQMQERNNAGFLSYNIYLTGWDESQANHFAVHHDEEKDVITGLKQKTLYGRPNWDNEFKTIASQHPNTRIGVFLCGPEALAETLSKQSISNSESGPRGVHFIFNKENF
# T2 sequence (P13498 1-195 partner): T1 sequence (P13498 1-195 partner)
# [5] = molecular target: T3, NOX5 (Homo sapiens, UniProt Q96PH1); settings: same conditions as Laleu et al.; GenKyoTex, personal communication; read-out: inhibitory constant for NOX5; cited from earlier work
# T3 sequence (Q96PH1 1-765): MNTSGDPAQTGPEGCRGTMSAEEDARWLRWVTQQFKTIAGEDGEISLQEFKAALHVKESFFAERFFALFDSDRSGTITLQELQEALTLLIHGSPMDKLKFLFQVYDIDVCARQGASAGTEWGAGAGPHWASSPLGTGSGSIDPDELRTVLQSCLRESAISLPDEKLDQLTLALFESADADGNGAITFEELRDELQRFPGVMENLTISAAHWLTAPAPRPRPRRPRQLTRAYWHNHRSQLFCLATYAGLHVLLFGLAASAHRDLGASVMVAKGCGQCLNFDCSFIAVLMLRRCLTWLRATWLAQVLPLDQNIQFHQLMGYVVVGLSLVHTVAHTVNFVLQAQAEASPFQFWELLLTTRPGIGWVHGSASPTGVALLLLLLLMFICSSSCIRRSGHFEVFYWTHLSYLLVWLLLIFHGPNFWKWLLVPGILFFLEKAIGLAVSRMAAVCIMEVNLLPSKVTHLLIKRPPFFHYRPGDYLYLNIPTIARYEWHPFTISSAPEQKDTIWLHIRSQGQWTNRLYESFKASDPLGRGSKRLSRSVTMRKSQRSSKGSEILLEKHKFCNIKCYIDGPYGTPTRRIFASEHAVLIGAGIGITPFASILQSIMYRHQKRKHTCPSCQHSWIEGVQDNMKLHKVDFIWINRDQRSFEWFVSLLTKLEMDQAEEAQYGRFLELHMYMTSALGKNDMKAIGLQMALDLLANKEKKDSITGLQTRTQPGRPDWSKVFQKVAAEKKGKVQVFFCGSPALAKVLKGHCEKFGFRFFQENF
# [6] = test system: HV1 proton channels in K562 and K562/NOX5 cells; assay: Perforated-patch clamp recording of proton currents; assay type: cell-based, human
# From the text: Micropipettes were pulled in several stages using a Flaming-Brown automatic pipette puller (Sutter Instruments, San Rafael, Calif.) from 7052 glass (Garner Glass Co., Claremont, Calif., USA), coated with Sylgard 184 (Dow Corning Corp., Midland, Mich.), heat polished to a tip resistance between 2 and 10 MΩ. Electrical contact with the pipette solution was achieved using a chloride silver wire. The reference electrode was made from an Ag—AgCl wire connected to the bath through an agar bridge made with Ringer solution (160 mM NaCl, 4.5 mM KCl, 2 mM CaCl2, 1 mM MgCl2, 5 mM Hepes adjusted to pH 7.4). Current signal from the Axopatch 200B (Axon Instruments, Foster City, Calif.) was recorded on PC through a Lab View SCB-68 (National Instruments, Austin, Tex.). Further data analysis was made with Origin 7.5. Seals were formed in Ringer solution in the bath, and the potential was zeroed when the pipette was in contact with the cell. Most measurements were done between 21 and 25° C.
# K562 cells were transferred on chips or pipette into the recording chamber. To leave internal signaling pathways undisturbed, the perforated patch configuration was used. Low access resistance was usually reached after 5-10 minutes. The perforated patch recording bath and pipette solution contained 50 mM NH^4+ in the form of (NH4)2SO4, 2 mM MgCl2, 5 mM Bes or Pipes buffer, and 1 mM EGTA adjusted to pH 7.0 with TMAOH. […]
smiles,measurement,setting,value
C[C@H](CCC(=O)O)C[C@H](C)C[C@H](C)C(=O)/C=C(\O)[C@H](C)C[C@H](C)C/C=C/[C@@H](C)[C@@H](O)[C@@H](C)[C@@H](O)C[C@@H]1CC[C@@](C)([C@H]2CC[C@@](C)([C@@H](C)O)O2)O1 [ionomycin],induction of superoxide production by spermatozoa,"[1]; ionomycin 1 μM, PMA 1 μg/ml or H2O2 100 μM, 10 min",induced vigorous superoxide production
"Cc1c2c(=O)n(-c3ccccc3Cl)[nH]c2cc(=O)n1Cc1ccccn1 [GKT136901, 2-(2-chlorophenyl)-4-methyl-5-(pyridin-2-ylmethyl)-1H-pyrazolo[4,3-c]pyridine-3,6(2H,5H)-dione]",effect on PMA-stimulated superoxide production,[1]; 1 μg/ml PMA,inhibited the stimulation of superoxide production by PMA in a concentration-dependent manner
same,effect on H2O2-induced superoxide chemiluminescence signal,[1],nearly completely abrogated
same,"potency in inhibiting PMA-stimulated superoxide production, sperm cells as compared with neutrophils",[1]; human spermatozoa versus human neutrophils,~10 fold
same,effect of pre-incubation on the H2O2 effect on motility,[2],abrogated
same,Ki,[3],160 ± 10 nM
same,selectivity over NOX2,[4],~9 fold
same,Ki,[5],450 ± 10 nM
"CCCCCCCCCCCCCC(=O)O[C@@H]1[C@@H](C)[C@@]2(O)[C@@H](C=C(CO)C[C@]3(O)C(=O)C(C)=C[C@@H]23)[C@@H]2C(C)(C)[C@]12OC(C)=O [PMA, phorbol myristate acetate]",response of proton channels to stimulation,[6]; 60 nM PMA,enhanced gating mode
"CN(C)CCCn1cc(C2=C(c3c[nH]c4ccccc34)C(=O)NC2=O)c2ccccc21 [GFX, GF109203X]",effect on PMA response of proton channels,[6]; GFX 3 μM after 60 nM PMA,Most features of the PMA response of proton channels were reversed
"O=C(O)CN(CC(=O)O)c1ccccc1OCCOc1ccccc1N(CC(=O)O)CC(=O)O [BAPTA, 1,2-Bis (2-aminophenoxy) ethane-N,N,N′,N′-tetraacetic acid]",effect on ionomycin-induced superoxide chemiluminescence signal,[1],blocked
same,effect on H2O2-induced superoxide chemiluminescence signal,[1],nearly completely abrogated
"c1ccc2c(c1)[I+]c1ccccc1-2 [DPI, diphenylene iodonium]",effect on ionomycin-induced superoxide chemiluminescence signal,[1],blocked
same,effect on H2O2-induced superoxide chemiluminescence signal,[1],nearly completely abrogated
same,effect of pre-incubation on the H2O2 effect on motility,[2],abrogated
